Test results: the Deep4Chem optical property database
Values belong to the compound of their own block, whether it stands above or below them.

Assay: photoluminescence quantum yield (fraction); solvent given as SMILES

- photoluminescence quantum yield (in CS(C)=O): 0.05
Structure (SMILES): Cn1c(=O)c(/N=N/c2ccc(/N=N/c3ccc(S(=O)(=O)O)cc3)cc2)c(O)c2ccccc21

- photoluminescence quantum yield (in ClCCl): 0.5
Structure (SMILES): C[SiH]1c2ccccc2-c2cc3c(cc21)-c1ccccc1[SiH]3C (stereo not drawn)

- photoluminescence quantum yield (in ClCCl): 0.003
Structure (SMILES): CN(C)c1ccc(C2=CC3=C(c4ccc([N+](=O)[O-])cc4)[C@H]4c5ccccc5[C@]3(S2)c2ccccc24)cc1

- photoluminescence quantum yield (in C1CCOC1): 0.86
- photoluminescence quantum yield (in ClC(Cl)Cl): 0.52
Structure (SMILES): F[Si](c1ccccc1)(c1ccccc1)c1c2ccccc2cc2ccccc12

- photoluminescence quantum yield (in C1CCCCC1): 0.02
Structure (SMILES): c1ccc(-c2cc3cccc[n+]3[b-]3c(-c4cccc5[b-]4[n+]4ccccc4cc5-c4ccccc4)cccc32)cc1

- photoluminescence quantum yield (in ClCCl): 0.21
Structure (SMILES): c1csc(-c2ccc3c4ccc(-c5cccs5)cc4n(-c4cccs4)c3c2)c1

- photoluminescence quantum yield (in ClCCl): 0.39
Structure (SMILES): c1ccc2c(c1)ccc1ccc3c(c12)-c1c(ccc2ccc4ccccc4c12)C3

- photoluminescence quantum yield (in C1CCCCC1): 0.26
Structure (SMILES): COc1ccc2c3c(c4ccc(OC)cc4c2c1)C(C)(C)c1ccc2ccccc2c1-3

- photoluminescence quantum yield (in C1CCOC1): 0.3
- photoluminescence quantum yield (in CN1CCCC1=O): 0.2
- photoluminescence quantum yield (in CN(C)C=O): 0.01
Structure (SMILES): O=C1c2ccc3c4c(Oc5ccccc5)cc5c6c(ccc(c7c(Oc8ccccc8)cc(c2c37)C(=O)N1c1ccc(O)cc1)c64)C(=O)N(c1ccc(O)cc1)C5=O

- photoluminescence quantum yield (in C1CCCCC1): 0.64
- photoluminescence quantum yield (in ClC(Cl)Cl): 0.06
Structure (SMILES): Clc1cc(Cl)c([C](c2c(Cl)cc(Cl)cc2Cl)c2c(Cl)cc(-n3c4ccccc4c4ccccc43)cc2Cl)c(Cl)c1

- photoluminescence quantum yield (in ClCCl): 0.74
Structure (SMILES): O=C1c2ccccc2C2=Nc3ccc4ccccc4[n+]3[B-](F)(F)N12

- photoluminescence quantum yield (in ClC(Cl)Cl): 0.92
Structure (SMILES): CCN(CC)c1ccc2cc(-c3cn4cc5ccccc5cc4n3)c(=O)oc2c1

- photoluminescence quantum yield (in ClCCl): 0.21
Structure (SMILES): CCCCn1c(-c2ccc(-c3nnc(-c4ccccc4)o3)cc2)nc(-c2ccccc2)c1-c1ccccc1

Second part, the compound before the results:

Structure (SMILES): CC(C)[Si]1(C(C)C)c2cc(C=C(C#N)C#N)ccc2-c2ccc(N(C)C)cc21
- photoluminescence quantum yield (in C1CCCCC1): 0.08
- photoluminescence quantum yield (in CC#N): 0.32
- photoluminescence quantum yield (in CCO): 0.16
- photoluminescence quantum yield (in CCOCC): 0.56
- photoluminescence quantum yield (in CS(C)=O): 0.23
- photoluminescence quantum yield (in ClCCl): 0.56
- photoluminescence quantum yield (in c1ccccc1): 0.36

Structure (SMILES): CCN(CC)c1ccc(-c2nc3c(c4c2-c2ccc(C#N)cc2CC4)-c2ccc(C#N)cc2CC3)cc1
- photoluminescence quantum yield (in C1CCOC1): 0.74
- photoluminescence quantum yield (in CC#N): 0.339
- photoluminescence quantum yield (in CCCCCC): 0.209
- photoluminescence quantum yield (in CCOC(C)=O): 0.565
- photoluminescence quantum yield (in CO): 0.148
- photoluminescence quantum yield (in CS(C)=O): 0.47
- photoluminescence quantum yield (in Cc1ccccc1): 0.427
- photoluminescence quantum yield (in ClCCl): 0.842

Structure (SMILES): Oc1cc(-c2cccs2)ccc1-c1nc2ccccc2s1
- photoluminescence quantum yield (in CCO): 0.1
- photoluminescence quantum yield (in ClCCl): 0.0937
- photoluminescence quantum yield (in O): 0.01

Structure (SMILES): COc1cccc(C2=CC3=C(c4c(C)cc(C)cc4C)c4cc(-c5cccc(OC)c5)c(-c5cccc(OC)c5)n4[B-](F)(F)[N+]3=C2c2cccc(OC)c2)c1
- photoluminescence quantum yield (in C1CCCCC1): 0.86
- photoluminescence quantum yield (in C1CCOC1): 0.76
- photoluminescence quantum yield (in CC#N): 0.65
- photoluminescence quantum yield (in Cc1ccccc1): 0.78
- photoluminescence quantum yield (in ClCCl): 0.83

Structure (SMILES): O=c1oc2ccc(Br)cc2cc1-c1cc2cc(Br)ccc2o1
- photoluminescence quantum yield (in CS(C)=O): 0.2

Structure (SMILES): CC[C@H](C)COc1ccc(C2=C3C(C)=C(I)C(C)=[N+]3[B-](F)(F)n3c(C)c(I)c(C)c32)cc1
- photoluminescence quantum yield (in ClCCl): 0.06

Structure (SMILES): CCN(CC)c1ccc2cc(C#N)/c(=N\C(C)=O)oc2c1
- photoluminescence quantum yield (in CCO): 0.15
- photoluminescence quantum yield (in ClCCl): 0.8

Structure (SMILES): CC(=O)OC[C@H]1O[C@@H](OCC#Cc2ccc(C3=C4C(C)=CC(/C=C/c5ccc(N(C)C)cc5)=[N+]4[B-](F)(F)n4c(/C=C/c5ccc(N(C)C)cc5)cc(C)c43)cc2)[C@H](OC(C)=O)C(OC(C)=O)[C@@H]1OC(C)=O (stereo partly drawn)
- photoluminescence quantum yield (in CC#N): 0.2

Structure (SMILES): CN(C)c1ccc2c(c1)C(C)(C)C1=CC(=[N+](C)C)C=CC1=C2C#Cc1ccccc1
- photoluminescence quantum yield (in CO): 0.148
- photoluminescence quantum yield (in O): 0.047

Structure (SMILES): COc1cc(OC)cc(C2=C3C(C)=C(I)C(C)=[N+]3[B-](F)(F)n3c(/C=C/c4c[nH]c5ccc([N+](=O)[O-])cc45)c(I)c(C)c32)c1
- photoluminescence quantum yield (in C1CCOC1): 0.32
- photoluminescence quantum yield (in CS(C)=O): 0.19
- photoluminescence quantum yield (in ClCCl): 0.37

Structure (SMILES): c1ccc2c(c1)c1ccccc1n2-c1ccc2c(c1)c1ccccc1n2-c1cc2c3ccccc3n3c4ccccc4c(c1)c23
- photoluminescence quantum yield (in O=P(c1ccccc1)(c1ccccc1)c1ccccc1Oc1ccccc1P(=O)(c1ccccc1)c1ccccc1): 0.53

Structure (SMILES): N#Cc1ccc(-c2pc3ccccc3s2)cc1 (stereo not drawn)
- photoluminescence quantum yield (in CC#N): 0.017

Structure (SMILES): COC(=O)/C=C/C=C/C1=CC2=C(c3c(C)cc(C)cc3C)c3cc(/C=C/C=C/C(=O)OC)cn3[B-](F)(F)[N+]2=C1
- photoluminescence quantum yield (in ClCCl): 0.054

Structure (SMILES): CN(C)CCN(Cc1c2ccccc2cc2ccccc12)c1ccc([N+](=O)[O-])cn1
- photoluminescence quantum yield (in C1CCCCC1): 0.0003
- photoluminescence quantum yield (in C1CCOC1): 0.0009
- photoluminescence quantum yield (in CC#N): 0.0383
- photoluminescence quantum yield (in CC(C)=O): 0.00324
- photoluminescence quantum yield (in CCO): 0.0115
- photoluminescence quantum yield (in CN(C)C=O): 0.0398
- photoluminescence quantum yield (in CO): 0.00453
- photoluminescence quantum yield (in ClC(Cl)Cl): 0.005

Structure (SMILES): COC(=O)C[C@H](Cc1c[nH]c2ccccc12)NC(=O)[C@H](CC(=O)N[C@@H](CC1=CCc2ccccc21)C(=O)OC)NC(=O)OC(C)(C)C
- photoluminescence quantum yield (in CC#N): 0.37
- photoluminescence quantum yield (in CCOC(C)=O): 0.22
- photoluminescence quantum yield (in CO): 0.06

Structure (SMILES): CCCCCCCCC1(CCCCCCCC)c2cc(-c3ccc(C(=O)OC)cc3)ccc2-c2ccc(-c3ccc(C(=O)OC)cc3)cc21
- photoluminescence quantum yield (in ClC(Cl)Cl): 0.94

Structure (SMILES): COc1ccc(C2=C3C(C)=CC(C)=[N+]3[B-](F)(F)n3c(/C=C/c4ccc(N(C)C)cc4)cc(C)c32)cc1
- photoluminescence quantum yield (in C1CCCCC1): 0.97
- photoluminescence quantum yield (in C1CCOC1): 0.56
- photoluminescence quantum yield (in C1COCCO1): 0.77
- photoluminescence quantum yield (in CC1CCCCC1): 0.86
- photoluminescence quantum yield (in CC#N): 0.09
- photoluminescence quantum yield (in CC(C)=O): 0.27
- photoluminescence quantum yield (in CC(C)OC(C)C): 0.87
- photoluminescence quantum yield (in CCC#N): 0.19
- photoluminescence quantum yield (in CCCC#N): 0.27
- photoluminescence quantum yield (in CCCCO): 0.59
- photoluminescence quantum yield (in CCCCOCCCC): 0.91
- photoluminescence quantum yield (in CCOC(C)=O): 0.59
- photoluminescence quantum yield (in CCOCC): 0.93
- photoluminescence quantum yield (in CN(C)C=O): 0.08
- photoluminescence quantum yield (in CO): 0.16
- photoluminescence quantum yield (in CS(C)=O): 0.056
- photoluminescence quantum yield (in Cc1ccccc1): 0.85
- photoluminescence quantum yield (in ClC(Cl)Cl): 0.82

Structure (SMILES): C(=C\c1nc(/C=C/c2ccc(N(c3ccccc3)c3ccccc3)cc2)cc(/C=C/c2ccc(N(c3ccccc3)c3ccccc3)cc2)n1)/c1ccccc1
- photoluminescence quantum yield (in ClCCl): 0.78

Structure (SMILES): COc1ccc(-c2cc3c(o2)=CC2=C(C(F)(F)F)c4cc5oc(-c6ccc(OC)cc6)cc5n4[B-](F)(F)[N+]=32)cc1
- photoluminescence quantum yield (in C1CCOC1): 0.49
- photoluminescence quantum yield (in CC#N): 0.45
- photoluminescence quantum yield (in CCO): 0.37
- photoluminescence quantum yield (in CO): 0.32
- photoluminescence quantum yield (in Cc1ccccc1): 0.58
- photoluminescence quantum yield (in ClC(Cl)Cl): 0.56

Structure (SMILES): CCOC(=O)c1cc(C(=O)OCC)c2cc(N(CC)CC)ccc2n1
- photoluminescence quantum yield (in CCO): 0.49

Structure (SMILES): CCOC(=O)c1cc(C(=O)OCC)c2c(C)ccc(O)c2n1
- photoluminescence quantum yield (in CCO): 0.26

Structure (SMILES): CC(C)[Si](C#Cc1c2ccccc2c(C#C[Si](C(C)C)(C(C)C)C(C)C)c2nc3c(nc12)C1c2ccccc2C3c2ccccc21)(C(C)C)C(C)C
- photoluminescence quantum yield (in CCCCCC): 0.7

Structure (SMILES): N#Cc1c(-n2c3ccccc3c3ccccc32)c(F)c(-n2c3ccccc3c3ccccc32)c(-n2c3ccccc3c3ccccc32)c1-n1c2ccccc2c2ccccc21
- photoluminescence quantum yield (in Cc1ccccc1): 0.81
- photoluminescence quantum yield (in c1ccc([Si](c2ccccc2)(c2ccc(-n3c4ccccc4c4ccccc43)cc2)c2ccc(-n3c4ccccc4c4ccccc43)cc2)cc1): 1

Structure (SMILES): N#Cc1c(N2CCCCC2)cc(-c2cccs2)c2c1-c1cccc3cccc-2c13
- photoluminescence quantum yield (in O): 0.3

Structure (SMILES): COc1ccc(-n2nc(C#N)c(N3CCOCC3)n2)cc1
- photoluminescence quantum yield (in CC#N): 0.856

Structure (SMILES): COc1ccc(N(c2ccc(OC)cc2)c2cc(N(c3ccc(OC)cc3)c3ccc(OC)cc3)c3ccc4cc(C(C)(C)C)cc5ccc2c3c54)cc1
- photoluminescence quantum yield (in ClCCl): 0.6

Structure (SMILES): CCOC(=O)/C(C)=C/C1=C(c2ccc(C)cc2)C2=Nc3c(-c4ccc(C)cc4)c(Br)c(-c4ccc(C)cc4)n3[B-](F)(F)[N+]2=C1c1ccc(C)cc1
- photoluminescence quantum yield (in ClC(Cl)Cl): 0.03

Structure (SMILES): N#Cc1ccc(N)c2nonc12
- photoluminescence quantum yield (in C1COCCO1): 0.218
- photoluminescence quantum yield (in CC#N): 0.105
- photoluminescence quantum yield (in CCCCCC): 0.329
- photoluminescence quantum yield (in CCO): 0.059
- photoluminescence quantum yield (in Cc1ccccc1): 0.304
- photoluminescence quantum yield (in ClCCl): 0.195
- photoluminescence quantum yield (in O): 0.002

Structure (SMILES): COC(=O)c1ccc(/C=C/C(F)(F)F)c(N)c1
- photoluminescence quantum yield (in C1CCOC1): 0.74

Structure (SMILES): CN(C)c1ccc(/C=C/c2cnc(/C=C/c3ccc(C#N)cc3)o2)cc1
- photoluminescence quantum yield (in ClCCl): 0.5

Structure (SMILES): COC(=O)C(Cc1ccc2oc(-c3ccc(N(C)c4ccccc4)cc3)nc2c1)NC(=O)OC(C)(C)C (stereo not drawn)
- photoluminescence quantum yield (in C1CCCCC1): 0.998
- photoluminescence quantum yield (in C1CCOC1): 0.27
- photoluminescence quantum yield (in C1COCCO1): 0.73
- photoluminescence quantum yield (in CC1CCCO1): 0.52
- photoluminescence quantum yield (in CC1COC(=O)O1): 0.11
- photoluminescence quantum yield (in CC#N): 0.11
- photoluminescence quantum yield (in CC(C)=O): 0.19
- photoluminescence quantum yield (in CC(C)CC(C)(C)C): 1
- photoluminescence quantum yield (in CC(C)CO): 0.2
- photoluminescence quantum yield (in CC(C)O): 0.19
- photoluminescence quantum yield (in CC(O)CO): 0.11
- photoluminescence quantum yield (in CCC(C)CC): 0.97
- photoluminescence quantum yield (in CCCCC): 1
- photoluminescence quantum yield (in CCCCCC): 1
- photoluminescence quantum yield (in CCCCCCCCC): 0.95
- photoluminescence quantum yield (in CCCCCCCCCC): 1
- photoluminescence quantum yield (in CCCCCCCO): 0.21
- photoluminescence quantum yield (in CCCCCCO): 0.22
- photoluminescence quantum yield (in CCCCCO): 0.28
- photoluminescence quantum yield (in CCCCO): 0.18
- photoluminescence quantum yield (in CCO): 0.07
- photoluminescence quantum yield (in CCOC(C)=O): 0.39
- photoluminescence quantum yield (in CCOCC): 0.6
- photoluminescence quantum yield (in CN(C)C=O): 0.16
- photoluminescence quantum yield (in CO): 0.03
- photoluminescence quantum yield (in COCCOC): 0.07
- photoluminescence quantum yield (in CS(C)=O): 0.15
- photoluminescence quantum yield (in Cc1ccccc1): 0.78
- photoluminescence quantum yield (in Cc1ccccc1C): 0.84
- photoluminescence quantum yield (in ClC(Cl)Cl): 0.58
- photoluminescence quantum yield (in ClCCl): 0.45
- photoluminescence quantum yield (in NC=O): 0.02
- photoluminescence quantum yield (in OC1CCCCC1): 0.18
- photoluminescence quantum yield (in OCCO): 0.03
- photoluminescence quantum yield (in c1ccccc1): 0.76
